Data published in US20220242812A1, “SWELL1-LRRC8 COMPLEX MODULATORS” (Washington University, priority 2019, published 2022).
“Also recorded” adds a separate entry of the source. Blank lines part the entries; values can stand above or below the compound they belong to.

How the values were obtained:
[1] = target: T1, closed SWELL1-LRRC8 channel in HEK-293 cells (Homo sapiens, UniProt Q8IWT6); test: ICl,SWELL inhibition on application to the closed SWELL1-LRRC8 channel (30 min preincubation), HEK-293 cells; format: cell-based; conditions: 1 μM, 30 minutes prior to hypotonic activation
T1 construct: endogenous in cells; host or cells: HEK-293 (ATCC CRL-1573)
Experimental: (§1) Patch-clamp recordings of β-cells and mature adipocytes were performed as described previously (Kang et al., 2018; Zhang et al., 2017). 3T3-F442A WT and KO preadipocytes were prepared as described in the Cell culture section above. For SWELL1 overexpression recordings, preadipocytes were first transduced with Ad5-CAG-LoxP-stop-LoxP-3×Flag-SWELL1 (MOI 12) in 2% FBS culture medium for two days and then overexpression induced by adding Ad5-CMV-Cre-wt-lRES-eGFP (MOI 10-12) in 2% FBS culture medium for two more days and changed to 10% FBS containing culture media and were selected based on GFP expression (˜2-3 days). For cell recordings, islets were transduced with Ad-RIP2-GFP and then dispersed after 48-72 hours for patch-clamp experiments. GFP+ cells marked β-cells selected for patch-clamp recordings. […] Recordings were measured using […] amplifier paired to a Digidata 1550 digitizer using pClamp 10.4 software. The extracellular buffer composition for hypotonic stimulation contains 90 mM NaCl, 2 mM CsCl, 1 mM MgCl, 1 mM CaCb, 10 mM HEPES, 10 mM Mannitol, pH 7.4 with NaOH (210 mOsm/kg). The extracellular isotonic buffer composition is same as above except for Mannitol concentration of 110 mM (300 mOsm/kg). The composition of intracellular buffer is 120 mM L-aspartic acid, 20 mM CsCl, 1 mM MgCl, 5 mM EGTA, 10 mM HEPES, 5 mM MgATP, 120 mM CsOH, 0.1 mM GTP, pH 7.2 with CsOH. All recordings were carried out at room temperature (RT) with HEK-293 cells, β-cells and 3T3-F442A cells performed in whole-cell configuration and human adipocytes in perforated-patch configuration, as previously described (Kang et al., 2018; Zhang et al., 2017).

[2] = target: T2, SWELL1 protein (Mus musculus, UniProt Q80WG5); conditions: 3T3-F442A adipocytes, 1 and 10 μM, 4 days
[3] = target: T2, SWELL1 protein; test: Glucolipotoxic stress (palmitate + glucose) SWELL1 protein in 3T3-F442A adipocytes; conditions: 10 μM 96 h, 1 mM palmitate + 25 mM glucose
[4] = target: T3, SWELL1-LRRC8 channel (ICl,SWELL) in HEK-293 cells (Homo sapiens, UniProt Q8IWT6); test: ICl,SWELL inhibition after hypotonic activation, patch-clamp in HEK-293 cells; format: cell-based; conditions: HEK-293 cells, hypotonic (210 mOsm), 10 and 7 μM, relative to SN-401
T3 construct: endogenous in cells; host or cells: HEK-293 (ATCC CRL-1573)
Experimental: Mean presented±SEM. Two-tailed unpaired t-test was used. *, **, and *** represents p<0.05, p<0.01 and p<0.001, respectively.
as §1

[5] = target: ICl,SWELL (SWELL1 channel) (Homo sapiens, UniProt Q8IWT6); test: Patch-clamp screening of Smod compounds for ICl,SWELL inhibitory activity; format: cell-based; conditions: preliminary patch-clamp experiments, in words
Description: FIG. 2. Patch-clamp screening of Smod compounds for ICL,SWELL inhibitory activity.
FIG. 3. Patch-clamp screening of Smod compounds for ICL,SWELL inhibitory activity.
A series of compounds (Smod compounds) were synthesized to evaluate the role of a butyrate side chain and aryl substituents on activity (see FIG. 1 and Table 1 below). In preliminary patch-clamp experiments to screen for compounds that preserve or enhance SWELL1 modulatory activity, unique structural derivatives were identified with ICl,SWELL inhibitory activity (Smod 2-6, FIGS. 2, 3, and 12-16, as well as Table 1 below). […] In vitro channel inhibitory activity was also maintained with Smod3-5 (FIG. 3). Note that compounds were also identified that lack activity, and therefore are not SWELL1 modulators (i.e., Snot1, FIGS. 2A and 3A). FIG. 4 summarizes three dose response curves of isolated enantiomers of Smod1 (+ and −) compared to Smod3. […] FIG. 5 summarizes the synthetic scheme used to generate these compounds.

[6] = test system: HFD T2D mice; test: Glucose tolerance and fasting glucose in HFD T2D mice (Smod compounds, Example 2); format: in vivo
Experimental: FIG. 7. Representative glucose tolerance test data, area under curve (AUC) and fasting glucose for mice treated with a vehicle, and 5 mg/kg/day Smod3 or Snot1 for 5 days. Smod3, but not Snot1 improves glucose tolerance (as measured by are under the curve, AUC), and fasting glucose in HFD T2D mice. N=5 mice in each group. *p<0.05, ** p<0.01, *** p<0.001.
FIG. 8. Glucose Tolerance of obese T2D mice (16 weeks HFD): Pre-Smod6 (black circles), after Smod6 (5 mg/kg i.p.×5 days, pink triangles), 4 weeks after i.p. vehicle injection (blue diamonds), and 4 weeks after discontinuing Smod6 (maroon squares).
FIG. 9. Glucose Tolerance of obese T2D mice (16 weeks HFD): 4 weeks after i.p. vehicle injection (black circles), 4 weeks after Snot1 (5 mg/kg i.p.×5 days, blue squares), and 4 weeks after Smod6 (5 mg/kg i.p.×5 days, maroon triangles).
Moreover, Smod3, and not Snot1 (5 mg/kg i.p.×[…]) improve glucose tolerance (GTT, Area under the curve) and fasting glucose (FG) in mice raised on HFD for 8 weeks in pilot studies (FIG. 7).

[7] = test system: HFD-induced T2D mice; test: Metabolic phenotyping (fasting glucose, GTT, ITT) in HFD-fed T2D mice; format: in vivo; conditions: HFD 8 weeks, 5 mg/kg/day x 4 days, compared to SN071
Experimental: (§2) All compounds were dissolved in Kolliphor® EL (Sigma, #C5135).
Mice were fasted for 6 h prior to glucose tolerance tests (GTT). Baseline glucose levels at 0 min timepoint (fasting glucose, FG) were measured from blood sample collected from tail snipping using glucometer (Bayer Healthcare LLC). Either 1 g or 0.75 g D-Glucose/kg body weight were injected (i.p.) for lean or HFD mice, respectively and glucose levels were measured at 7, 15, 30, 60, 90 and 120 min timepoints after injection. For insulin tolerance tests (ITTs), the mice were fasted for 4 h. […] All mice and treatment groups were assessed blindly while performing experiments.

[8] = test system: polygenic T2D KKAy mice; test: Metabolic phenotyping (fasting glucose, GTT, ITT) in polygenic T2D KKAy mice; format: in vivo; conditions: T2D KKAy mice, 5 mg/kg i.p. 4 days, compared to SN071
Description: All C57BL/6 mice involved in study were purchased from Charles River Labs. Both KK.Cg-Ay/J (KKN) and KK.Cg-Aa/J (KKAa) mice involved in study were gender and age-matched mice obtained from Jackson Labs (Stock No: 002468) and bred up for experiments. The mice were fed ad libitum with either regular chow (RC) or high-fat diet (Research Diets, Inc., 60 kcal % fat) with free access to water and housed in a light-, temperature- and humidity-controlled room. For high-fat diet (HFD) studies, only male mice were used and were started on HFD regimen at the age of 6-9 weeks. For all experiments involving KKN and KKAa mice, both males and females were used at approximately 50/50 ratio. In all experiments involving mice, investigators were kept blinded both during the experiments and subsequent analysis.
as §2
Mice were fasted for 6 h prior to glucose tolerance tests (GTT). Baseline glucose levels at 0 min timepoint (fasting glucose, FG) were measured from blood sample collected from tail snipping using glucometer (Bayer Healthcare LLC). Either 1 g or 0.75 g D-Glucose/kg body weight were injected (i.p.) for lean or HFD mice, respectively and glucose levels were measured at 7, 15, 30, 60, 90 and 120 min timepoints after injection. For insulin tolerance tests (ITTs), the mice were fasted for 4 h. Similar to GTTs, the baseline blood glucose levels were measured at 0 min timepoint and 15, 30, 60, 90 and 120 min timepoints post-injection (i.p.) of insulin (HumulinR, 1 U/kg body weight for lean mice or 1.25 U/kg body weight for HFD mice). […] The collected plasma was then measured for insulin content by using Ultra-Sensitive Mouse Insulin ELISA Kit (Crystal Chem, #90080). All mice and treatment groups were assessed blindly while performing experiments.

[9] = test system: islets, glucose-stimulated insulin secretion; test: Islet perifusion GSIS assay, islets from treated T2D mice; format: in vivo; conditions: islets of T2D KKAy mice, compared to SN071
Experimental: For patch-clamp studies involving primary mouse cells, the mice were anesthesized by injecting Avertin (0.0125 g/ml in H2O) followed by cervical dislocation. […] Perifusion buffer contained (in mM): 120 NaCl, 24 NaHCO3, 4.8 KCl, 2.5 CaCl, 1.2 MgSO4, 10 HEPES, 2.8 glucose, 27.2 mannitol, 0.25% w/v bovine serum albumin, pH 7.4 with NaOH (300 mOsm/kg). Perifusion buffer kept at 37° C. was circulated at 120 μI/min After 48 min of washing with 2.8 mM glucose solution for stabilization, islets were stimulated with the following sequence: 16 min of 16.7 mM glucose, 40 min of 2.8 mM glucose, 10 min of 30 mM KCl, and 12 min of 2.8 mM glucose. Osmolarity was matched by adjusting mannitol concentration when preparing solution containing 16.7 mM glucose. Serial samples were collected either every 1 or 2 min into 96 wells kept at 4° C. Insulin concentrations were further determined using commercially available ELISA kit (Mercodia). The area under the curve (AUC) for the high-glucose induced insulin release was calculated for time points between 50 to 74/84 min. At the completion of the experiments, islets were further lysed by addition of RIPA buffer and the amount of insulin was detected by ELISA.

[10] = mice on HFD 8 weeks, 5 mg/kg i.p. x 4 days (FIG. 7 legend: 5 days), listed as Smod3, 5 mg/kg

- Subsequent hypotonic SWELL1-LRRC8 activation [1]: inactive
- SWELL1 protein level relative to vehicle-treated controls [2]: do not significantly increase
Structure (SMILES): O=C(O)CCCOc1cc2c(c(Cl)c1Cl)C(=O)C(C1CCCC1)C2 (centres unmarked) [UIPC-III-083B, 4-((6,7-dichloro-2-cyclopentyl-1-oxo-2,3-dihydro-1H-inden-5-yl)oxy)butanoic acid]
- Prevention of palmitate/glucose-induced SWELL1 protein reduction [3]: not
- On-target inhibition of ICl,SWELL ([4]; listed as SN072): entirely eliminated; also recorded: eliminate ICl,SWELL inhibitory activity

Structure (SMILES): CCCCC1(C2CCCC2)Cc2cc(OCCCN(C)C)c(Cl)c(Cl)c2C1=O.Cl (racemic) [UICK-IV-105b]
- ICl,SWELL inhibitory activity ([5]; listed as Smod2): active; also recorded: maintaining activity

- Subsequent hypotonic SWELL1-LRRC8 activation [1]: inactive
- SWELL1 protein level relative to vehicle-treated controls [2]: do not significantly increase
- On-target inhibition of ICl,SWELL [4]: eliminate ICl,SWELL inhibitory activity
- On-target inhibition of ICl,SWELL ([4]; listed as S1\1071): entirely eliminated
Structure (SMILES): CCCCC1(C2CCCC2)Cc2cc(OCC(=O)O)c(Cl)c(Cl)c2C1=O (centres unmarked) [SN071, 2-((2-butyl-6,7-dichloro-2-cyclopentyl-1-oxo-2,3-dihydro-1H-inden-5-yl)oxy)acetic acid]

- ICl,SWELL inhibitory activity ([5]; listed as Smod3): maintaining and augmenting activity
Structure (SMILES): CCCCC1(C2CCCC2)Cc2cc(OCCCCC(=O)O)c(Cl)c(Cl)c2C1=O (racemic) [UICK-IV-119]
- Fasting glucose (FG) [6, 10]: improves
- Glucose tolerance (GTT, area under the curve) [6, 10]: improves

- On-target inhibition of ICl,SWELL [4]: maintained or enhanced
Structure (SMILES): CCCCC1(C2CCCC2)Cc2cc(OCCCCC(=O)O)c(Cl)c(Cl)c2C1=O (centres unmarked) [SN-403, 5-((2-butyl-6,7-dichloro-2-cyclopentyl-1-oxo-2,3-dihydro-1H-inden-5-yl)oxy)pentanoic acid]
- Fasting blood glucose [7]: significantly reduced
- Glucose tolerance [7]: improved

Structure (SMILES): CCCCC1(C2CCCC2)Cc2cc(OCC(=O)O)c(Cl)c(Cl)c2C1=O (centres unmarked) [UICK-IV-101a]
- ICl,SWELL inhibitory activity ([5]; listed as Snot1): lack activity; also recorded: lacking ICl,SWELL inhibitory activity
- Glucose tolerance (GTT, area under the curve) ([6]; mice on HFD 8 weeks, 5 mg/kg i.p. x 4 days (FIG. 7 legend: 5 days)): not

Structure (SMILES): CCCCC1(C2CCCC2)Cc2cc(OCCCCCCC(=O)O)c(Cl)c(Cl)c2C1=O (centres unmarked) [SN-407, 7-((2-butyl-6,7-dichloro-2-cyclopentyl-1-oxo-2,3-dihydro-1H-inden-5-yl)oxy)heptanoic acid]
- Glucose tolerance based on the GTT AUC [8]: improved
- On-target inhibition of ICl,SWELL [4]: maintained or enhanced; also recorded: increase
- GSIS [9]: increased

- ICl,SWELL inhibitory activity [5]: maintaining activity
Structure (SMILES): CCCCC1(C2CCCC2)Cc2cc(OC/C=C/C(=O)O)c(Cl)c(Cl)c2C1=O (racemic) [UIPC-II-179]

Structure (SMILES): CCCCC1(C2CCCC2)Cc2cc(OCCCCCC(=O)O)c(Cl)c(Cl)c2C1=O (racemic) [UIPC-III-045B]
- Glucose tolerance 4 weeks after discontinuing treatment ([6]; T2D HFD fed mice, 5 mg/kg i.p. x 5 days, after 20 weeks HFD): sustain improved glucose tolerance

Structure (SMILES): CCCCC1(C2CCCC2)Cc2cc(OCCCC(=O)O)c(C)c(C)c2C1=O (racemic) [UIPC-II-187B]
- ICl,SWELL inhibitory activity ([5]; listed as Smod5): did not significantly alter activity; also recorded: maintaining activity
